Experimental data: patent publication US4895589A, “Heterocyclic compounds” (Imperial Chemical Industries PLC, priority 1985, dated 1990)

Key:
Wheat [1] = settings: WW, 4000 ppm, 2-3 weeks
Procedure: (§7) The compounds were tested for plant growth regulator activity against up to tweleve plant species for various growth effects relevant to plant growth regulation.
(§8) After spray, the plants were grown in a glasshouse with 25° C. day/22° C. night temperatures and supplementary lighting was supplied when necessary (from mercury vapour lamps), to provide a 16 hour photoperiod. The exception to this were the temperate cereals, wheat and barley, which were grown in 16° C. day 13° C. night temperatures
(§9) After 2-3 weeks in the glasshouse, depending on the time of year, the plants were visually assessed for morphological characteristics. Formulations blanks were used as controls to assess the Plants.

Soya = settings: SY, 4000 ppm, 2-3 weeks
Procedure: as §7, §8, §9

Spring Barley = assay: Intermediate Retardant Test, spring barley; type: in vivo, Spring Barley (Atem/kym); settings: Hordeum vulgare, 672 h, ~28 days, Table VIII, read-out: Percentage Reduction in Height of Spring Barley (Compared to formulation blank)
Procedure: (§1) Three species are involved in this test RICE, SPRING-BARLEY and APPLES. The variety and growth stages at spray are outlined in Table VI. Compounds were applied at 1000 ppm and 4000 ppm respectively (1 kg and 4 kg ha^-1 at a field volume of 1000 l/ha^-1) as an overall spray. This gives a foliar and root component in the test, i.e. this test will detect the activity of both root and foliar acting compounds. The rice was grown in 4" `paddy` pots, i.e. the roots and bottom of the stems are immersed in water under conditions corresponding to those in paddy fields. Spring barley and apples were grown in 4" pots. The plants were assessed for height to top-most ligule at approximately 28 days after treatment for spring barley and rice and for height to apex at approximately 28 days after the treatment for apples. In each case the result for the 1000 ppm and 4000 ppm test for each compound is compared to the height of the formulation blank in that test, presented as a percentage reduction in height compared to the formulation blank.
as §1, with “in Table XIV. Compounds were” for “in Table VI. Compounds were”, “that test, and presented as” for “that test, presented as”

Apples = assay: Intermediate Retardant Test, apples; type: in vivo, Apples (Red Delicious); settings: 672 h, ~28 days, Table IX, read-out: Percentage Reduction in Height of Apples (Compared to formulation blank)
Procedure: as §1
as §1, with “in Table XIV. Compounds were” for “in Table VI. Compounds were”, “that test, and presented as” for “that test, presented as”

Cynosurus cristatus = settings: CC, 4000 ppm, 2-3 weeks
Procedure: as §7, §8, §9

Agrostis tenius = settings: AT, 4000 ppm, 2-3 weeks
Procedure: as §7, §8, §9

Rice [2] = assay: Intermediate Retardant Test, rice; type: in vivo, Rice (Ishikari); settings: Oryza sativa, 672 h, ~28 days, Table VII, read-out: Percentage Reduction in Height of Rice (Compared to formulation blank)
Procedure: as §1
as §1, with “in Table XIV. Compounds were” for “in Table VI. Compounds were”, “that test, and presented as” for “that test, presented as”

Tomato = settings: TO, 4000 ppm, 2-3 weeks
[3] = system: plant species of Whole Plant Screen (1) or (2); assay: Across screen comparison: total retardation relative to paclobutrazol (Whole Plant Screens (1) and (2)); type: in vivo; settings: compounds of Table I, Table X
Excerpt: The following Example is a general indicative comparison of compounds from EP No. 0052424 with compounds from the preferred class in the present invention. The compounds have not been side-by-side tested on this Example because of the large numbers involved but the retardant activity can be compared using a standard which has been on each test.
The compounds which are compared in this Example have been tested on one of two tests. These are the Whole Plant Screen (1) and Whole Plant Screen (2) the methods for which are described in Examples 17 and 18 respectively.
An across screen comparison between compounds is made by expressing the total retardation (ie. sum of retardation scores recorded for each species tested) caused by the compound as a percentage of the total retardation caused by the standard in that test. The standard chemical gives a measure of the performance of the test and environmental factors. By expressing the test compound activity as a percentage of the standard compound activity these factors can be eliminated . The same standard has been used in every test and this is paclobutrazol a proprietory growth regulator.

Dacrylis glomerata = settings: DA, 4000 ppm, 2-3 weeks
Procedure: as §7, §8, §9

Barley [4] = settings: BR, 4000 ppm, 2-3 weeks
Procedure: as §7, §8, §9

Maize = assay: Whole Plant Screen (2), maize; type: in vivo, Maize (Earliking); settings: MZ, 4000 ppm, 2-6 weeks, Table V
Procedure: (§2) Compound numbers 12-13, 16-17 and 19-20 were tested on an alternative whole plant screen (2). The compounds were tested for plant growth regulator activity against five species for various growth effects relevant to plant growth regulation.
The plant species used in this screen are presented in Table IV with the leaf stage at which they were sprayed. Each chemical was applied at 4000 ppm (4 kg/ha in a 1000 l/ha field volume) using a tracksprayer and a SS8004E (Teejet) nozzle.
(§3) After spray the plants were grown in a glasshouse with 25° C. day 22° C. night temperatures and supplementary lighting was supplied when necessary (from mercury vapour lamps), to provide a 16 hour photoperiod. The exception to this were the temperate cereals, wheat and barley which were grown in 16° C. day 13° C. night temperatures.
(§4) After 2-6 weeks in the glasshouse, depending on the time of year, the plants were visually assessed for morphological characteristics. Formulation blanks were used as controls to assess the plants.
(§5) Compound numbers 1, 5 and 7 (of the present invention) were tested against compounds A, B, C and D (compound Nos. 12, 2, 24 and 50 of Table 1 EP No. 0052424) on whole plant screen (2). The compounds were tested of plant growth regulator activity against five species and for various growth effects relevant to plant growth regulation. The structures are set out in FIG. 1.
The plant species used in this screen are presented in Table XII with the leaf stage at which they were sprayed Each chemical was applied at 4000 ppm (4 kg/ha in a 1000 l/ha field volume) using a tracksprayer and a SS8004E (Teejet) nozzle.
as §3, with “day/22°” for “day 22°”, “day/13°” for “day 13°”

Barley [5] = assay: Whole Plant Screen (2), barley; type: in vivo, Barley (Atem); settings: BR, 4000 ppm, 2-6 weeks, Table V
Procedure: as §5
(§6) The plant species used in this screen are presented in Table XII with the leaf stage at which they were sprayed Each chemical was applied at 4000 ppm (4 kg/ha in a 1000 l/ha field volume) using a tracksprayer and a SS8004E (Teejet) nozzle. […]

Rice [6] = assay: Whole Plant Screen (2), rice; type: in vivo, Rice (Ishikari); settings: RC, 4000 ppm, 2-6 weeks, Table V
Procedure: as §4, §5, §6

Wheat [7] = assay: Whole Plant Screen (2), wheat; type: in vivo, Wheat (Timmo); settings: WW, 4000 ppm, 2-6 weeks, Table V
Procedure: as §2
The plant species used in this screen are presented in Table IV with the leaf stage at which they were sprayed. Each chemical was applied at 4000 ppm (4 kg/ha in a 1000 l/ha field volume) using a tracksprayer and a SS8004E (Teejet) nozzle. […]
After 2-6 weeks in the glasshouse, depending on the time of year, the plants were visually assessed for morphological characteristics. Formulation blanks were used as controls to assess the plants. […]

## CCC(C)CC#CC(O)(Cn1cncn1)C(C)(C)C (centres unmarked) [Compound 10, 2,2-dimethyl-3-hydroxy-3-(4-methyl-hex-1-yne-1-yl)-4-(1,2,4-triazol-1-yl)-butane]
Wheat [1]
  Retardation score (1-3) with greening (G), apical damage (A), tillering/side shooting (T): 2GT
Soya
  Retardation score (1-3) with greening (G), apical damage (A), tillering/side shooting (T): 2GA
Spring Barley
  height reduction vs blank at 1000 ppm: 20.2%
  height reduction vs blank at 4000 ppm: 72.4%
Apples
  percent reduction in plant height vs formulation blank at 1000 ppm: 9.8%
  percent reduction in plant height vs formulation blank at 4000 ppm: 27.1%
Cynosurus cristatus
  Retardation score (1-3) with greening (G), apical damage (A), tillering/side shooting (T): 2 (21-60% retardation)
Agrostis tenius
  Retardation score (1-3) with greening (G), apical damage (A), tillering/side shooting (T): 1 (10-30% retardation)
Rice [2]
  Percent reduction in rice plant height vs formulation blank at 1000 ppm: 20.7%
  Percent reduction in rice plant height vs formulation blank at 4000 ppm: 38.2%
Tomato
  Retardation score (1-3) with greening (G), apical damage (A), tillering/side shooting (T): 1G
[3]
  Total Retardation expressed as a percentage of the total retardation caused by paclobutrazol: 47.8 % of paclobutrazol
Dacrylis glomerata
  Retardation score (1-3) with greening (G), apical damage (A), tillering/side shooting (T): 1 (10-30% retardation)
Barley [4]
  Retardation score (1-3) with greening (G), apical damage (A), tillering/side shooting (T): 2GT

## CC(C)(C)C(O)(C#CCCCCl)Cn1cncn1 (centres unmarked) [Compound 13]
Maize
  I = Interligular or internodal length reduction: 1 (10-30%)
  R = Retardation: 1 (10-30%)
Barley [5]
  I = Interligular or internodal length reduction: 2 (31-60%)
Spring Barley
  height reduction vs blank at 1000 ppm: 17%
  height reduction vs blank at 4000 ppm: 41%
Apples
  percent reduction in plant height vs formulation blank at 1000 ppm: 2.8%
  percent reduction in plant height vs formulation blank at 4000 ppm: 9.2%
Rice [6]
  I = Interligular or internodal length reduction: 2 (31-60%)
  R = Retardation: 2 (31-60%)
  T = Tillering or side shooting: 1 (10-30%)
Rice [2]
  Percent reduction in rice plant height vs formulation blank at 1000 ppm: 6%
  Percent reduction in rice plant height vs formulation blank at 4000 ppm: 5.2%
Wheat [7]
  G = Greening effect: 1 (10-30%)
  T = Tillering or side shooting: 1 (10-30%)
[3]
  Total Retardation expressed as a percentage of the total retardation caused by paclobutrazol: 83.3 % of paclobutrazol
